Measurements taken from publication PMC5218480 (PLoS ONE, 2017).

Tested on: MV-4-11 cells
Test: Gene expression microarray analysis (Affymetrix PrimeView) and GSEA
Format: cell-based, human
Design: RFU PODN (11730768_x_at) / Fold change /veh PODN (11730768_x_at) / RFU LINC00158 (11744669_a_at) / Fold change /veh LINC00158 (11744669_a_at) / RFU DUSP10 (11751237_a_at) / Fold change /veh DUSP10 (11751237_a_at) / RFU ID3 (11757404_x_at) / Fold change /veh ID3 (11757404_x_at) / RFU PLEKHG5 (11737974_s_at) / Fold change /veh PLEKHG5 (11737974_s_at) / RFU LRRC4B (11730491_at) / Fold change /veh LRRC4B (11730491_at) / RFU GIMAP4 (11747438_a_at) / Fold change /veh GIMAP4 (11747438_a_at) / RFU KRT8 (11758183_x_at) / Fold change /veh KRT8 (11758183_x_at) / RFU CNN1 (11734310_a_at) / Fold change /veh CNN1 (11734310_a_at) / RFU VPS37D (11726825_at) / Fold change /veh VPS37D (11726825_at) / RFU C10orf10 (11716522_x_at) / Fold change /veh C10orf10 (11716522_x_at) / RFU KIR2DL2 /// KIR2DL4 /// KIR2DL5A /// KIR2DL5B /// KIR2DS1 /// KIR2DS2 /// KIR2DS3 /// KIR2DS4 /// KIR3DL3 /// KIR3DL3 /// KIR3DS1 (11738374_at) / Fold change /veh KIR2DL2 /// KIR2DL4 /// KIR2DL5A /// KIR2DL5B /// KIR2DS1 /// KIR2DS2 /// KIR2DS3 /// KIR2DS4 /// KIR3DL3 /// KIR3DL3 /// KIR3DS1 (11738374_at) / RFU C1QL1 (11718748_at) / Fold change /veh C1QL1 (11718748_at) / RFU TMPRSS4 (11747572_a_at) / Fold change /veh TMPRSS4 (11747572_a_at) / RFU HAMP (11756126_x_at) / Fold change /veh HAMP (11756126_x_at) / RFU RNFT2 (11725882_a_at) / Fold change /veh RNFT2 (11725882_a_at) / RFU NR4A2 (11747474_a_at) / Fold change /veh NR4A2 (11747474_a_at) / RFU ABCC12 (11746883_a_at) / Fold change /veh ABCC12 (11746883_a_at) / RFU TMEM136 (11760407_x_at) / Fold change /veh TMEM136 (11760407_x_at) / RFU CLDN22 /// WWC2 (11732394_at) / Fold change /veh CLDN22 /// WWC2 (11732394_at) / RFU HLA-DPB1 (11760878_x_at) / Fold change /veh HLA-DPB1 (11760878_x_at) / RFU SPINT1 (11716480_a_at) / Fold change /veh SPINT1 (11716480_a_at) / RFU GAP43 (11754022_s_at) / Fold change /veh GAP43 (11754022_s_at) / RFU A4GNT (11735810_at) / Fold change /veh A4GNT (11735810_at) / RFU PRB3 (11715151_x_at) / Fold change /veh PRB3 (11715151_x_at) / RFU TUBB4B (11761932_at) / Fold change /veh TUBB4B (11761932_at) / RFU CAPN14 (11732068_a_at) / Fold change /veh CAPN14 (11732068_a_at) / RFU TMCC2 (11721928_a_at) / Fold change /veh TMCC2 (11721928_a_at) / RFU IRGQ (11745062_a_at) / Fold change /veh IRGQ (11745062_a_at) / RFU FAM174B (11720279_a_at) / Fold change /veh FAM174B (11720279_a_at) / RFU TMPRSS4 (11748680_a_at) / Fold change /veh TMPRSS4 (11748680_a_at) / RFU FAM212B (11763350_a_at) / Fold change /veh FAM212B (11763350_a_at) / RFU PLEKHG5 (11743358_a_at) / Fold change /veh PLEKHG5 (11743358_a_at) / RFU ZSCAN30 (11745921_a_at) / Fold change /veh ZSCAN30 (11745921_a_at) / RFU CMKLR1 (11741424_a_at) / Fold change /veh CMKLR1 (11741424_a_at) / RFU LOC101060620 /// MAPK8IP1 (11723275_at) / Fold change /veh LOC101060620 /// MAPK8IP1 (11723275_at) / RFU SPTSSB (11747773_x_at) / Fold change /veh SPTSSB (11747773_x_at) / RFU PRSS12 (11739890_at) / Fold change /veh PRSS12 (11739890_at) / RFU BIN1 (11741810_x_at) / Fold change /veh BIN1 (11741810_x_at) / RFU WNT11 (11732464_a_at) / Fold change /veh WNT11 (11732464_a_at) / RFU C10orf10 (11716521_a_at) / Fold change /veh C10orf10 (11716521_a_at) / RFU C5orf56 (11738089_at) / Fold change /veh C5orf56 (11738089_at) / RFU CYB561 (11721691_x_at) / Fold change /veh CYB561 (11721691_x_at) / RFU ANKRD19P (11752326_a_at) / Fold change /veh ANKRD19P (11752326_a_at) / RFU OR2T12 /// OR2T33 /// OR2T8 (11738714_s_at) / Fold change /veh OR2T12 /// OR2T33 /// OR2T8 (11738714_s_at) / RFU VCAN (11748164_a_at) / Fold change /veh VCAN (11748164_a_at) / RFU JSRP1 (11732532_at) / Fold change /veh JSRP1 (11732532_at) / RFU KRTAP10-11 (11738290_x_at) / Fold change /veh KRTAP10-11 (11738290_x_at) / RFU MYO3A (11730013_a_at) / Fold change /veh MYO3A (11730013_a_at) / RFU EBF3 (11725865_a_at) / Fold change /veh EBF3 (11725865_a_at) / RFU CAMK2N1 (11719241_x_at) / Fold change /veh CAMK2N1 (11719241_x_at) / RFU C5orf56 (11738088_a_at) / Fold change /veh C5orf56 (11738088_a_at) / RFU OLFML3 (11715873_a_at) / Fold change /veh OLFML3 (11715873_a_at) / RFU LOC100653217 /// NTM (11731650_a_at) / Fold change /veh LOC100653217 /// NTM (11731650_a_at) / RFU MAPK11 (11762145_a_at) / Fold change /veh MAPK11 (11762145_a_at) / RFU FIZ1 (11724087_x_at) / Fold change /veh FIZ1 (11724087_x_at) / RFU OASL (11726364_x_at) / Fold change /veh OASL (11726364_x_at) / RFU SOX15 (11748057_x_at) / Fold change /veh SOX15 (11748057_x_at) / RFU CD79A (11719716_a_at) / Fold change /veh CD79A (11719716_a_at) / RFU HIST1H1D (11736915_at) / Fold change /veh HIST1H1D (11736915_at) / RFU CASKIN2 (11723855_a_at) / Fold change /veh CASKIN2 (11723855_a_at) / RFU LOC730098 (11760151_x_at) / Fold change /veh LOC730098 (11760151_x_at) / RFU OR4N2 (11742367_at) / Fold change /veh OR4N2 (11742367_at) / RFU PRRT2 (11749266_a_at) / Fold change /veh PRRT2 (11749266_a_at) / RFU SNX32 (11753110_a_at) / Fold change /veh SNX32 (11753110_a_at) / RFU CDHR5 (11726645_a_at) / Fold change /veh CDHR5 (11726645_a_at) / RFU RCAN1 (11760418_a_at) / Fold change /veh RCAN1 (11760418_a_at) / RFU FAM167A (11723789_a_at) / Fold change /veh FAM167A (11723789_a_at) / RFU FAM26E (11764081_at) / Fold change /veh FAM26E (11764081_at) / RFU ISYNA1 (11749810_s_at) / Fold change /veh ISYNA1 (11749810_s_at) / RFU ACY1 (11761880_at) / Fold change /veh ACY1 (11761880_at) / RFU 11764098_at / Fold change /veh 11764098_at / RFU SAMD14 (11745864_x_at) / Fold change /veh SAMD14 (11745864_x_at) / RFU NPB (11741838_a_at) / Fold change /veh NPB (11741838_a_at) / RFU TMPRSS6 (11731388_a_at) / Fold change /veh TMPRSS6 (11731388_a_at) / RFU KRTAP10-2 (11738614_at) / Fold change /veh KRTAP10-2 (11738614_at) / RFU ARHGAP8 /// PRR5-ARHGAP8 (11727945_x_at) / Fold change /veh ARHGAP8 /// PRR5-ARHGAP8 (11727945_x_at) / RFU KRTAP5-7 /// NADSYN1 (11734609_at) / Fold change /veh KRTAP5-7 /// NADSYN1 (11734609_at) / RFU RASL12 (11751679_a_at) / Fold change /veh RASL12 (11751679_a_at) / RFU CDKN2B (11736163_a_at) / Fold change /veh CDKN2B (11736163_a_at) / RFU PRF1 (11729649_at) / Fold change /veh PRF1 (11729649_at) / RFU, ZNF638 /// ZNF638-IT1 / Fold change vs veh, ZNF638 /// ZNF638-IT1 / RFU, PANK3 / Fold change vs veh, PANK3 / RFU, SH3YL1 / Fold change vs veh, SH3YL1 / RFU, ZEB2 / Fold change vs veh, ZEB2 / RFU, NRIP1 / Fold change vs veh, NRIP1 / RFU, PTTG1IP / Fold change vs veh, PTTG1IP / RFU, CAPN2 / Fold change vs veh, CAPN2 / RFU, MED14 / Fold change vs veh, MED14 / RFU, SNORA58 / Fold change vs veh, SNORA58 / RFU, C1orf63 / Fold change vs veh, C1orf63 / RFU, LRRFIP1 / Fold change vs veh, LRRFIP1 / RFU, NDUFAF7 / Fold change vs veh, NDUFAF7 / RFU, SLC12A2 / Fold change vs veh, SLC12A2 / RFU, IBTK / Fold change vs veh, IBTK / RFU, ESF1 / Fold change vs veh, ESF1 / Fold change vs veh, TMEM50B / RFU, TAOK1 / Fold change vs veh, TAOK1 / RFU, ACBD3 / Fold change vs veh, ACBD3 / RFU, TMA16 / Fold change vs veh, TMA16 / RFU, RWDD3 / Fold change vs veh, RWDD3 / RFU, BCAT1 / Fold change vs veh, BCAT1 / RFU, EDEM3 / Fold change vs veh, EDEM3 / RFU, TMEM33 / Fold change vs veh, TMEM33 / RFU, WDR75 / Fold change vs veh, WDR75 / RFU, AHCTF1 / Fold change vs veh, AHCTF1 / RFU, TFRC / Fold change vs veh, TFRC / RFU, ZDHHC17 / Fold change vs veh, ZDHHC17 / RFU, NOM1 / Fold change vs veh, NOM1 / RFU, ARL8B / Fold change vs veh, ARL8B / RFU, ZBTB11 / Fold change vs veh, ZBTB11 / RFU, TAMM41 / Fold change vs veh, TAMM41 / RFU, KIAA1704 /// LOC100996395 / Fold change vs veh, KIAA1704 /// LOC100996395 / RFU, ING1 / Fold change vs veh, ING1 / RFU, TRMT61B / Fold change vs veh, TRMT61B / RFU, FUBP3 / Fold change vs veh, FUBP3 / RFU, TP53 / Fold change vs veh, TP53 / RFU, TNKS2 / Fold change vs veh, TNKS2 / RFU, ZFP14 / Fold change vs veh, ZFP14 / RFU, ACTR2 / Fold change vs veh, ACTR2 / RFU, PPP3R1 / Fold change vs veh, PPP3R1 / RFU, PIK3R1 / Fold change vs veh, PIK3R1 / RFU, HNRNPA1 / Fold change vs veh, HNRNPA1 / RFU, RNF170 / Fold change vs veh, RNF170 / RFU, ZNF28 / Fold change vs veh, ZNF28 / RFU, RNGTT / Fold change vs veh, RNGTT / RFU, OGT / Fold change vs veh, OGT / RFU, BRD1 / Fold change vs veh, BRD1 / RFU, MARS / Fold change vs veh, MARS / RFU, ZNF655 / Fold change vs veh, ZNF655 / RFU, FAHD1 / Fold change vs veh, FAHD1 / RFU, BDP1 / Fold change vs veh, BDP1 / RFU, LRRCC1 / Fold change vs veh, LRRCC1 / RFU, ARID1A / Fold change vs veh, ARID1A / RFU, ZNF146 / Fold change vs veh, ZNF146 / RFU, ZNF330 / Fold change vs veh, ZNF330 / RFU, GPN3 / Fold change vs veh, GPN3 / RFU, C9orf123 / Fold change vs veh, C9orf123 / RFU, N4BP2L2 / Fold change vs veh, N4BP2L2 / RFU, ARFIP1 / Fold change vs veh, ARFIP1 / RFU, FAM179B / Fold change vs veh, FAM179B / RFU, BCL10 / Fold change vs veh, BCL10 / RFU, UHRF1BP1L / Fold change vs veh, UHRF1BP1L / RFU, BET1 / Fold change vs veh, BET1 / RFU, CNOT2 / Fold change vs veh, CNOT2 / RFU, ZNF268 / Fold change vs veh, ZNF268 / Fold change vs veh, ZNF507 / RFU, DGCR2 / Fold change vs veh, DGCR2 / RFU, WDSUB1 / Fold change vs veh, WDSUB1 / Fold change vs veh, HSP90B1 /// MIR3652 / RFU, ADSS / Fold change vs veh, ADSS / RFU, GK / Fold change vs veh, GK / RFU, ZNF148 / Fold change vs veh, ZNF148 / RFU, TAF9 / Fold change vs veh, TAF9 / RFU, SLC1A5 / Fold change vs veh, SLC1A5 / RFU, SLMO2 / Fold change vs veh, SLMO2 / RFU, ABCC4 / Fold change vs veh, ABCC4 / RFU, LOC101060439 /// RAP1B / Fold change vs veh, LOC101060439 /// RAP1B / RFU, RFX7 / Fold change vs veh, RFX7 / RFU, GTPBP10 / Fold change vs veh, GTPBP10 / RFU, CNEP1R1 / Fold change vs veh, CNEP1R1 / RFU, BIVM-ERCC5 /// ERCC5 / Fold change vs veh, BIVM-ERCC5 /// ERCC5 / RFU, ILF3 / Fold change vs veh, ILF3 / RFU 11762660_at / Fold change /veh 11762660_at / RFU VCAN (11757783_s_at) / Fold change /veh VCAN (11757783_s_at) / RFU DDX43 (11728927_at) / Fold change /veh DDX43 (11728927_at) / RFU KRT8 (11758188_x_at) / Fold change /veh KRT8 (11758188_x_at) / RFU NKD1 (11759106_at) / Fold change /veh NKD1 (11759106_at) / RFU SRD5A1 (11742802_a_at) / Fold change /veh SRD5A1 (11742802_a_at) / RFU TPSAB1 /// TPSB2 (11721975_s_at) / Fold change /veh TPSAB1 /// TPSB2 (11721975_s_at) / RFU GSTM3 (11746129_a_at) / Fold change /veh GSTM3 (11746129_a_at) / RFU IL23R (11737362_x_at) / Fold change /veh IL23R (11737362_x_at) / RFU TMEM51 (11727254_a_at) / Fold change /veh TMEM51 (11727254_a_at) / RFU PIWIL2 (11732686_x_at) / Fold change /veh PIWIL2 (11732686_x_at) / RFU ORM1 (11744905_x_at) / Fold change /veh ORM1 (11744905_x_at) / RFU CCDC152 (11743942_at) / Fold change /veh CCDC152 (11743942_at) / RFU ECM1 (11717891_a_at) / Fold change /veh ECM1 (11717891_a_at) / RFU IL23R (11748794_a_at) / Fold change /veh IL23R (11748794_a_at) / RFU TNFAIP8L3 (11732012_x_at) / Fold change /veh TNFAIP8L3 (11732012_x_at) / RFU MBOAT4 (11741988_at) / Fold change /veh MBOAT4 (11741988_at) / RFU 11764193_at / Fold change /veh 11764193_at / RFU TMEM53 (11763286_at) / Fold change /veh TMEM53 (11763286_at) / RFU MAGEB2 (11727129_at) / Fold change /veh MAGEB2 (11727129_at) / RFU TMEM200A (11744735_a_at) / Fold change /veh TMEM200A (11744735_a_at) / RFU CCDC152 (11751479_a_at) / Fold change /veh CCDC152 (11751479_a_at) / RFU FAM211A (11726209_a_at) / Fold change /veh FAM211A (11726209_a_at) / RFU RGS16 (11746705_a_at) / Fold change /veh RGS16 (11746705_a_at) / RFU VCAN (11755009_s_at) / Fold change /veh VCAN (11755009_s_at) / RFU RHOB (11743442_s_at) / Fold change /veh RHOB (11743442_s_at) / RFU RGS16 (11720943_a_at) / Fold change /veh RGS16 (11720943_a_at) / RFU RGS16 (11720944_at) / Fold change /veh RGS16 (11720944_at) / RFU, VPS4B / Fold change vs veh, VPS4B / RFU, CREB1 / Fold change vs veh, CREB1 / RFU, DNAJC13 / Fold change vs veh, DNAJC13 / RFU, GNAQ / Fold change vs veh, GNAQ / RFU, CDK5R1 / Fold change vs veh, CDK5R1 / RFU, ZRANB3 / Fold change vs veh, ZRANB3 / RFU, CUL4A / Fold change vs veh, CUL4A / RFU, CCNY / Fold change vs veh, CCNY / RFU, UFL1 / Fold change vs veh, UFL1 / RFU, COG3 / Fold change vs veh, COG3 / RFU, DIAPH2 / Fold change vs veh, DIAPH2 / RFU, SKA2 / Fold change vs veh, SKA2 / RFU, AFF3 / Fold change vs veh, AFF3 / RFU, LMF1 / Fold change vs veh, LMF1 / RFU, IPO11 / Fold change vs veh, IPO11 / RFU, DFFB / Fold change vs veh, DFFB / RFU, FOXP1 / Fold change vs veh, FOXP1 / RFU, CARD8 / Fold change vs veh, CARD8 / RFU, STRN3 / Fold change vs veh, STRN3 / RFU, ADK / Fold change vs veh, ADK / RFU, RASSF2 / Fold change vs veh, RASSF2 / RFU, WIPF1 / Fold change vs veh, WIPF1 / RFU, LARP1B / Fold change vs veh, LARP1B / RFU, RASA1 / Fold change vs veh, RASA1 / RFU, RB1 / Fold change vs veh, RB1 / RFU, PPFIA1 / Fold change vs veh, PPFIA1 / RFU, MAT2A / Fold change vs veh, MAT2A / RFU, CCT5 / Fold change vs veh, CCT5 / RFU, WDR92 / Fold change vs veh, WDR92 / RFU, CUX1 / Fold change vs veh, CUX1 / RFU, TTC7A / Fold change vs veh, TTC7A / RFU, TMEM135 / Fold change vs veh, TMEM135 / RFU, DEPTOR / Fold change vs veh, DEPTOR / RFU, CPM / Fold change vs veh, CPM / RFU, DNAJB6 / Fold change vs veh, DNAJB6 / RFU, CACNA2D3 / Fold change vs veh, CACNA2D3 / RFU, DTX4 / Fold change vs veh, DTX4 / RFU, TFCP2 / Fold change vs veh, TFCP2 / RFU, GMCL1 /// GMCL1P1 / Fold change vs veh, GMCL1 /// GMCL1P1 / RFU, AEBP2 / Fold change vs veh, AEBP2 / RFU, SNHG1 /// SNORD22 /// SNORD25 /// SNORD26 /// SNORD27 /// SNORD28 /// SNORD29 /// SNORD31 / Fold change vs veh, SNHG1 /// SNORD22 /// SNORD25 /// SNORD26 /// SNORD27 /// SNORD28 /// SNORD29 /// SNORD31 / Fold change (Aza/veh), C12orf56 (ProbeSet 11735607_a_at) / Fold change (ACY-1035/veh), C12orf56 (ProbeSet 11735607_a_at) / Fold change (Aza/veh), FGFR1OP (ProbeSet 11751329_s_at) / Fold change (ACY-1035/veh), FGFR1OP (ProbeSet 11751329_s_at) / Fold change (Aza/veh), VPS36 (ProbeSet 11739960_a_at) / Fold change (ACY-1035/veh), VPS36 (ProbeSet 11739960_a_at) / RFU SYPL1 (11715823_x_at) / Fold change /veh SYPL1 (11715823_x_at) / RFU IGFBP7 (11715501_s_at) / Fold change /veh IGFBP7 (11715501_s_at) / RFU REEP3 (11722064_at) / Fold change /veh REEP3 (11722064_at) / RFU IGLL1 (11728026_x_at) / Fold change /veh IGLL1 (11728026_x_at): dose or concentration left out as unconfirmed
Settings: ProbeSet 11743580_s_at; LIST B

Nc1ncn([C@@H]2O[C@H](CO)[C@@H](O)[C@H]2O)c(=O)n1 [azacitidine]
RFU, ACTR2: 932.68 RFU
